Assay results from PubChem BioAssay (NCI).
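Protocol summary: plate cells (96-well), add compound at 5 concentrations, incubate 48 h, interpolate endpoints linearly. Abbreviation: GI50, concentration required for 50% inhibition of growth. TGI: concentration producing complete growth inhibition.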

Tests used:
Assay in all cases: growth of human tumour cells (NCI), 48 h
MALME-3M melanoma = tested on: MALME-3M melanoma
RPMI-8226 leukemia = tested on: RPMI-8226 leukemia
UACC-62 melanoma = tested on: UACC-62 melanoma
TK-10 renal = tested on: TK-10 renal
MCF7 breast = tested on: MCF7 breast
SNB-75 CNS = tested on: SNB-75 CNS
M14 melanoma = tested on: M14 melanoma
A498 renal = tested on: A498 renal
BT-549 breast = tested on: BT-549 breast
CCRF-CEM leukemia = tested on: CCRF-CEM leukemia
SW-620 colon = tested on: SW-620 colon
NCI-H226 lung = tested on: NCI-H226 lung
NCI/ADR-RES ovarian = tested on: NCI/ADR-RES ovarian
SF-268 CNS = tested on: SF-268 CNS
IGROV1 ovarian = tested on: IGROV1 ovarian
MOLT-4 leukemia = tested on: MOLT-4 leukemia
COLO 205 colon = tested on: COLO 205 colon
HL-60(TB) leukemia = tested on: HL-60(TB) leukemia
U251 CNS = tested on: U251 CNS
NCI-H522 lung = tested on: NCI-H522 lung
786-0 renal = tested on: 786-0 renal
SF-295 CNS = tested on: SF-295 CNS
SK-MEL-5 melanoma = tested on: SK-MEL-5 melanoma
SK-MEL-2 melanoma = tested on: SK-MEL-2 melanoma
PC-3 prostate = tested on: PC-3 prostate
SR leukemia = tested on: SR leukemia
OVCAR-3 ovarian = tested on: OVCAR-3 ovarian
HOP-92 NSCLC = tested on: HOP-92 NSCLC
OVCAR-4 ovarian = tested on: OVCAR-4 ovarian
OVCAR-8 ovarian = tested on: OVCAR-8 ovarian
NCI-H460 lung = tested on: NCI-H460 lung
K-562 leukemia = tested on: K-562 leukemia
UACC-257 melanoma = tested on: UACC-257 melanoma
UO-31 renal = tested on: UO-31 renal
HS 578T breast = tested on: HS 578T breast
SK-OV-3 ovarian = tested on: SK-OV-3 ovarian
DU-145 prostate = tested on: DU-145 prostate
NCI-H23 lung = tested on: NCI-H23 lung
RXF 393 renal = tested on: RXF 393 renal
CAKI-1 renal = tested on: CAKI-1 renal
HCC-2998 colon = tested on: HCC-2998 colon
SN12C renal = tested on: SN12C renal
ACHN renal = tested on: ACHN renal
T-47D breast = tested on: T-47D breast
HCT-15 colon = tested on: HCT-15 colon
MDA-MB-231 breast = tested on: MDA-MB-231 breast
LOX IMVI melanoma = tested on: LOX IMVI melanoma
A549 NSCLC = tested on: A549 NSCLC
HCT-116 colon = tested on: HCT-116 colon
HT29 colon = tested on: HT29 colon
SF-539 CNS = tested on: SF-539 CNS
KM12 colon = tested on: KM12 colon
SNB-19 CNS = tested on: SNB-19 CNS
OVCAR-5 ovarian = tested on: OVCAR-5 ovarian
MDA-MB-435 = tested on: MDA-MB-435
EKVX NSCLC = tested on: EKVX NSCLC
HOP-62 NSCLC = tested on: HOP-62 NSCLC
SK-MEL-28 melanoma = tested on: SK-MEL-28 melanoma

Compound `CCn1cc(C2NC(=O)c3cc(F)ccc3N2)c2cccc(Cl)c21` (stereo not given) has a GI50 (MALME-3M melanoma) of 2550 nM, a TGI (MALME-3M melanoma) greater than 100000 nM and a GI50 (RPMI-8226 leukemia) of 359 nM. The TGI (RPMI-8226 leukemia) was greater than 100000 nM, the GI50 (UACC-62 melanoma) was 84.3 nM and the TGI (UACC-62 melanoma) was greater than 61900 nM. The GI50 (TK-10 renal) was greater than 100000 nM, the TGI (TK-10 renal) was greater than 100000 nM and the GI50 (MCF7 breast) was 91.3 nM. For the same compound, the TGI (MCF7 breast) was greater than 100000 nM, the GI50 (SNB-75 CNS) was 123 nM and the TGI (SNB-75 CNS) was 11900 nM. For the same compound, the GI50 (M14 melanoma) was 138 nM, the TGI (M14 melanoma) was greater than 100000 nM and the GI50 (A498 renal) was 87.9 nM. For the same compound, the TGI (A498 renal) was 402 nM, the GI50 (BT-549 breast) was 327 nM and the TGI (BT-549 breast) was greater than 100000 nM. For the same compound, the GI50 (CCRF-CEM leukemia) was 172 nM, the TGI (CCRF-CEM leukemia) was greater than 50300 nM and the GI50 (SW-620 colon) was 193 nM. The TGI (SW-620 colon) was greater than 100000 nM, the GI50 (NCI-H226 lung) was 664 nM and the TGI (NCI-H226 lung) was 9630 nM. It also gave a GI50 (NCI/ADR-RES ovarian) of 81 nM, a TGI (NCI/ADR-RES ovarian) of 750 nM and a GI50 (SF-268 CNS) of 1920 nM. It also gave a TGI (SF-268 CNS) greater than 100000 nM, a GI50 (IGROV1 ovarian) of 388 nM and a TGI (IGROV1 ovarian) greater than 100000 nM. For the same compound, the GI50 (MOLT-4 leukemia) was 293 nM, the TGI (MOLT-4 leukemia) was greater than 47800 nM and the GI50 (COLO 205 colon) was 349 nM. The GI50 (HL-60(TB) leukemia) was 121 nM, the TGI (HL-60(TB) leukemia) was 731 nM and the GI50 (U251 CNS) was 330 nM. It also gave a TGI (U251 CNS) greater than 100000 nM, a GI50 (NCI-H522 lung) of 135 nM and a TGI (NCI-H522 lung) greater than 32100 nM. It also gave a GI50 (786-0 renal) of 618 nM, a TGI (786-0 renal) greater than 50600 nM and a GI50 (SF-295 CNS) of 100 nM. The TGI (SF-295 CNS) was greater than 58300 nM, the GI50 (SK-MEL-5 melanoma) was 446 nM and the TGI (SK-MEL-5 melanoma) was greater than 100000 nM. The GI50 (SK-MEL-2 melanoma) was 887 nM, the TGI (SK-MEL-2 melanoma) was greater than 100000 nM and the GI50 (PC-3 prostate) was 296 nM. For the same compound, the TGI (PC-3 prostate) was greater than 100000 nM, the GI50 (SR leukemia) was 39 nM and the TGI (SR leukemia) was greater than 100000 nM. For the same compound, the GI50 (OVCAR-3 ovarian) was 100 nM, the TGI (OVCAR-3 ovarian) was 596 nM and the GI50 (HOP-92 NSCLC) was greater than 24400 nM. It also gave a TGI (HOP-92 NSCLC) greater than 100000 nM, a GI50 (OVCAR-4 ovarian) of 2530 nM and a TGI (OVCAR-4 ovarian) greater than 100000 nM. For the same compound, the GI50 (OVCAR-8 ovarian) was 408 nM, the TGI (OVCAR-8 ovarian) was greater than 100000 nM and the GI50 (NCI-H460 lung) was 320 nM. For the same compound, the TGI (NCI-H460 lung) was greater than 100000 nM, the GI50 (K-562 leukemia) was 41.4 nM and the TGI (K-562 leukemia) was greater than 100000 nM. The GI50 (UACC-257 melanoma) was greater than 100000 nM, the TGI (UACC-257 melanoma) was greater than 100000 nM and the GI50 (UO-31 renal) was 2880 nM. For the same compound, the TGI (UO-31 renal) was greater than 100000 nM, the GI50 (HS 578T breast) was 197 nM and the TGI (HS 578T breast) was greater than 23100 nM. For the same compound, the GI50 (SK-OV-3 ovarian) was 706 nM, the TGI (SK-OV-3 ovarian) was greater than 100000 nM and the GI50 (DU-145 prostate) was 379 nM. For the same compound, the TGI (DU-145 prostate) was greater than 100000 nM, the GI50 (NCI-H23 lung) was 508 nM and the TGI (NCI-H23 lung) was greater than 100000 nM. The GI50 (RXF 393 renal) was 149 nM, the TGI (RXF 393 renal) was 674 nM and the GI50 (CAKI-1 renal) was 196 nM. For the same compound, the TGI (CAKI-1 renal) was greater than 100000 nM, the GI50 (HCC-2998 colon) was 348 nM and the TGI (HCC-2998 colon) was greater than 25500 nM. For the same compound, the GI50 (SN12C renal) was 706 nM, the TGI (SN12C renal) was greater than 100000 nM and the GI50 (ACHN renal) was 606 nM. The TGI (ACHN renal) was greater than 100000 nM, the GI50 (T-47D breast) was 635 nM and the TGI (T-47D breast) was greater than 100000 nM. It also gave a GI50 (HCT-15 colon) of 96.8 nM, a TGI (HCT-15 colon) greater than 100000 nM and a GI50 (MDA-MB-231 breast) of 503 nM. It also gave a TGI (MDA-MB-231 breast) greater than 100000 nM, a GI50 (LOX IMVI melanoma) of 374 nM and a TGI (LOX IMVI melanoma) greater than 100000 nM. It also gave a GI50 (A549 NSCLC) of 364 nM, a TGI (A549 NSCLC) greater than 100000 nM and a GI50 (HCT-116 colon) of 177 nM. For the same compound, the TGI (HCT-116 colon) was greater than 100000 nM, the GI50 (HT29 colon) was 276 nM and the TGI (HT29 colon) was greater than 100000 nM. For the same compound, the GI50 (SF-539 CNS) was 177 nM, the TGI (SF-539 CNS) was 683 nM and the GI50 (KM12 colon) was 277 nM. The TGI (KM12 colon) was greater than 100000 nM, the GI50 (SNB-19 CNS) was 382 nM and the TGI (SNB-19 CNS) was greater than 100000 nM. For the same compound, the GI50 (OVCAR-5 ovarian) was 503 nM, the TGI (OVCAR-5 ovarian) was greater than 100000 nM and the GI50 (MDA-MB-435) was 36.7 nM. For the same compound, the TGI (MDA-MB-435) was 142 nM, the GI50 (EKVX NSCLC) was 461 nM and the TGI (EKVX NSCLC) was greater than 100000 nM. The GI50 (HOP-62 NSCLC) was 485 nM, the TGI (HOP-62 NSCLC) was greater than 100000 nM and the GI50 (SK-MEL-28 melanoma) was 847 nM. For the same compound, the TGI (SK-MEL-28 melanoma) was greater than 100000 nM.
